Tests used:
in vivo = conditions: po
[1] = cited from earlier work
[2] = cited from earlier work; remark: listed apart in the source

Row | SMILES | Tmax (in vivo) | half-life (in vivo) | steady-state plasma trough concentrations versus minimum inhibitory concentration ([1]; 75 mg twice daily) | metabolite clearance in renal impairment ([1]; human, in vivo) | absolute bioavailability of the active metabolite ([1]; in vivo, po) | time to maximal concentrations ([1]; in vivo, po) | time until detectable in plasma ([1]; in vivo, po) | accumulation ([1]; in vivo) | apparent half-life ([1]; in vivo) | exposure at steady state, higher in elderly compared with young individuals ([1]; in vivo) | time to steady-state plasma concentrations ([1]; in vivo) | absorption and conversion after oral administration ([1]; oral, G. He et al.) | median serum half-life ([2]; Cass et al.) | dose systemically absorbed (median) ([2]; in vivo) | excreted unchanged in the urine ([2]; in vivo) | time to maximum serum concentrations ([2]; in vivo) | tolerability ([2]; in vivo)
1 | CCC(CC)O[C@@H]1C=C(C(=O)O)C[C@H](N)[C@H]1NC(C)=O [Active metabolite of oseltamivir, oseltamivir carboxylate] | 8 h | 14 h | remain above the minimum inhibitory concentration for all influenza strains tested | decreases linearly with creatinine clearance | about 80% | 3 to 4 h | ≤ 30 min | less than 2 fold | 6 to 10 h | approximately 25% | ≤ 3 days | – | – | – | – | – | –
2 | CCOC(=O)C1=C[C@@H](OC(CC)CC)[C@H](NC(C)=O)[C@@H](N)C1 [Oseltamivir, reference compound] | 3 h | 5 to 7 h | – | – | – | – | – | – | – | – | – | readily absorbed from the gastrointestinal tract and extensively converted to the active metabolite | – | – | – | – | –
3 | CC(=O)N[C@H]1[C@H]([C@H](O)[C@H](O)CO)OC(C(=O)O)=C[C@@H]1N=C(N)N [zanamivir, 4-guanidino-2,4-dideoxy-2,3-dehydro-N-acetylneuraminic acid] | – | – | – | – | – | – | – | – | – | – | – | – | 2.5 and 5.05 hours | 10 to 20% | approximately 90% | 1 to 2 h | well tolerated at all doses
